Laboratory results reported in ChEMBL document CHEMBL3414511, “Synthesis of a novel class of substituted benzothiophene or benzofuran derivatives as BMP-2 up-regulators and evaluation of the BMP-2-up-regulating effects in vitro and the effects on glucocorticoid-induced osteoporosis in rats” (Eur J Med Chem, 2015).
Calls of active or inactive are those of the source. The rule behind the calls is not given here.

Experiments:
Rattus norvegicus [1] = assay: Toxicity in glucocorticoid-induced Wistar rat osteoporosis model assessed as white blood cells at 30 mg/kg/day, po administered six times a week for 3 months (reference value: 6.28 +/- 2.78 x 10^9/L); assay type: organism-based; set-up: route oral; conditions: in vivo
Rattus norvegicus [2] = assay: Toxicity in glucocorticoid-induced Wistar rat osteoporosis model assessed as effect on platelets at 30 mg/kg/day, po administered six times a week for 3 months; assay type: organism-based; set-up: route oral; conditions: in vivo
Rattus norvegicus [3] = assay: Antiosteoporotic activity in glucocorticoid-induced Wistar rat osteoporosis model assessed as increase in trabecula area at 30 mg/kg/day, po administered six times a week for 3 months by toluidine blue staining-based light microscopic analysis relative to dexamethasone; assay type: functional, organism-based
[4] = Upregulation of BMP-2 expression in mouse MC3T3-E1 cells at 4 uM after 24 hrs by luciferase reporter gene assay relative to control; assay type: functional, cell-based
Mus musculus [5] = assay: Acute toxicity in Kunming mouse assessed as shiny fur at 700 mg/kg, po administered for 3 days measured during compound dosing and following 14 days; assay type: organism-based; set-up: dose 700 mg/kg, route oral; conditions: in vivo, 336 h
Rattus norvegicus [6] = assay: Toxicity in glucocorticoid-induced Wistar rat osteoporosis model assessed as effect on glucose level at 30 mg/kg/day, po administered six times a week for 3 months; assay type: organism-based; set-up: route oral; conditions: in vivo
Rattus norvegicus [7] = assay: Toxicity in glucocorticoid-induced Wistar rat osteoporosis model assessed as effect on red blood cell distribution width at 30 mg/kg/day, po administered six times a week for 3 months; assay type: organism-based; set-up: route oral; conditions: in vivo
Rattus norvegicus [8] = assay: Toxicity in glucocorticoid-induced Wistar rat osteoporosis model assessed as effect on hemoglobin at 30 mg/kg/day, po administered six times a week for 3 months; assay type: organism-based; set-up: route oral; conditions: in vivo
Rattus norvegicus [9] = assay: Toxicity in glucocorticoid-induced Wistar rat osteoporosis model assessed as effect on creatinine level at 30 mg/kg/day, po administered six times a week for 3 months; assay type: organism-based; set-up: route oral; conditions: in vivo
Rattus norvegicus [10] = assay: Toxicity in glucocorticoid-induced Wistar rat osteoporosis model assessed as effect on blood urea nitrogen level at 30 mg/kg/day, po administered six times a week for 3 months; assay type: organism-based; set-up: route oral; conditions: in vivo
Rattus norvegicus [11] = assay: Toxicity in glucocorticoid-induced Wistar rat osteoporosis model assessed as effect on total bilirubin level at 30 mg/kg/day, po administered six times a week for 3 months; assay type: organism-based; set-up: route oral; conditions: in vivo
Rattus norvegicus [12] = assay: Antiosteoporotic activity in glucocorticoid-induced Wistar rat osteoporosis model assessed as mineral apposition rate at 30 mg/kg/day, po administered six times a week for 3 months by fluorescence assay (reference value: 1.06 +/- 0.27 micrometer/day); assay type: functional
Rattus norvegicus [13] = assay: Toxicity in glucocorticoid-induced Wistar rat osteoporosis model assessed as effect on red blood cells at 30 mg/kg/day, po administered six times a week for 3 months; assay type: organism-based; set-up: route oral; conditions: in vivo
Rattus norvegicus [14] = assay: Toxicity in glucocorticoid-induced Wistar rat osteoporosis model assessed as triglycerides level at 30 mg/kg/day, po administered six times a week for 3 months (reference value: 1.13 +/- 0.69 mmol/L); assay type: organism-based; set-up: route oral; conditions: in vivo
Rattus norvegicus [15] = assay: Toxicity in glucocorticoid-induced Wistar rat osteoporosis model assessed as effect on total protein level at 30 mg/kg/day, po administered six times a week for 3 months; assay type: organism-based; set-up: route oral; conditions: in vivo
Rattus norvegicus [16] = assay: Toxicity in glucocorticoid-induced Wistar rat osteoporosis model assessed as neutrophilic granulocytes level at 30 mg/kg/day, po administered six times a week for 3 months (reference value: 31.95 +/- 8.33%); assay type: organism-based; set-up: route oral; conditions: in vivo
Rattus norvegicus [17] = assay: Toxicity in glucocorticoid-induced Wistar rat osteoporosis model assessed as effect on albumin level at 30 mg/kg/day, po administered six times a week for 3 months; assay type: organism-based; set-up: route oral; conditions: in vivo
Rattus norvegicus [18] = assay: Antiosteoporotic activity in glucocorticoid-induced Wistar rat osteoporosis model assessed as trabecula formation surface at 30 mg/kg/day, po administered six times a week for 3 months by fluorescence assay (reference value: 7.82 +/- 2.46%); assay type: functional
Rattus norvegicus [19] = assay: Toxicity in glucocorticoid-induced Wistar rat osteoporosis model assessed as aspartate transaminase level at 30 mg/kg/day, po administered six times a week for 3 months (reference value: 177.55 +/- 116.98 U/L); assay type: organism-based; set-up: route oral; conditions: in vivo
Mus musculus [20] = assay: Acute toxicity in Kunming mouse assessed as behavioral changes at 700 mg/kg, po administered for 3 days measured during compound dosing and following 14 days; assay type: organism-based; set-up: dose 700 mg/kg, route oral; conditions: in vivo, 336 h
Rattus norvegicus [21] = assay: Antiosteoporotic activity in glucocorticoid-induced Wistar rat osteoporosis model assessed as trabecular bone volume at 30 mg/kg/day, po administered six times a week for 3 months by fluorescence assay (reference value: 33.09 +/- 5.15%); assay type: functional, Trabecula
[22] = Acute toxicity in po dosed Kunming mouse administered for 3 days measured during compound dosing and following 14 days; assay type: organism-based; conditions: in vivo
Rattus norvegicus [23] = assay: Antiosteoporotic activity in glucocorticoid-induced Wistar rat osteoporosis model assessed as increase in trabecula connectivity at 30 mg/kg/day, po administered six times a week for 3 months by toluidine blue staining-based light microscopic analysis relative to dexamethasone; assay type: functional, organism-based
Rattus norvegicus [24] = assay: Antiosteoporotic activity in glucocorticoid-induced Wistar rat osteoporosis model assessed as increase in trabecula number at 30 mg/kg/day, po administered six times a week for 3 months by toluidine blue staining-based light microscopic analysis relative to dexamethasone; assay type: functional, organism-based
Rattus norvegicus [25] = assay: Toxicity in glucocorticoid-induced Wistar rat osteoporosis model assessed as effect on mean corpuscular hemoglobin concentration at 30 mg/kg/day, po administered six times a week for 3 months; assay type: organism-based; set-up: route oral; conditions: in vivo
Rattus norvegicus [26] = assay: Antiosteoporotic activity in glucocorticoid-induced Wistar rat osteoporosis model assessed as trabecula resorption surface at 30 mg/kg/day, po administered six times a week for 3 months by fluorescence assay (reference value: 7.22 +/- 2.04%); assay type: functional
Rattus norvegicus [27] = assay: Toxicity in glucocorticoid-induced Wistar rat osteoporosis model assessed as effect on mean corpuscular volume at 30 mg/kg/day, po administered six times a week for 3 months; assay type: organism-based; set-up: route oral; conditions: in vivo
Rattus norvegicus [28] = assay: Toxicity in glucocorticoid-induced Wistar rat osteoporosis model assessed as effect on red blood cell specific volume at 30 mg/kg/day, po administered six times a week for 3 months; assay type: organism-based; set-up: route oral; conditions: in vivo
Rattus norvegicus [29] = assay: Antiosteoporotic activity in glucocorticoid-induced Wistar rat osteoporosis model assessed as increase in trabecula thickness at 30 mg/kg/day, po administered six times a week for 3 months by toluidine blue staining-based light microscopic analysis relative to dexamethasone; assay type: functional, organism-based
Rattus norvegicus [30] = assay: Toxicity in glucocorticoid-induced Wistar rat osteoporosis model assessed as alanine transaminase level at 30 mg/kg/day, po administered six times a week for 3 months (reference value: 43.73 +/- 36.21 U/L); assay type: organism-based; set-up: route oral; conditions: in vivo
Rattus norvegicus [31] = assay: Toxicity in glucocorticoid-induced Wistar rat osteoporosis model assessed as lymph level at 30 mg/kg/day, po administered six times a week for 3 months (reference value: 50.35 +/- 12.96%); assay type: organism-based; set-up: route oral; conditions: in vivo
Rattus norvegicus [32] = assay: Antiosteoporotic activity in glucocorticoid-induced Wistar rat osteoporosis model assessed as densed trabecula at 30 mg/kg/day, po administered six times a week for 3 months by toluidine blue staining-based light microscopic analysis relative to dexamethasone; assay type: functional, organism-based

SMILES | Activity (Rattus norvegicus [1]) [×10⁹ /L] | Activity (Rattus norvegicus [2]) | Activity [4] [%] | Activity (Mus musculus [5]) | Activity (Rattus norvegicus [6]) | Activity (Rattus norvegicus [7]) | Activity (Rattus norvegicus [8]) | Activity (Rattus norvegicus [9]) | Activity (Rattus norvegicus [10]) | Activity (Rattus norvegicus [11]) | Activity (Rattus norvegicus [12]) [micrometer/day] | Activity (Rattus norvegicus [13]) | Activity (Rattus norvegicus [14]) [mmol/L] | Activity (Rattus norvegicus [15]) | Activity (Rattus norvegicus [16]) [%] | Activity (Rattus norvegicus [17]) | Activity (Rattus norvegicus [18]) [%] | Activity (Rattus norvegicus [19]) [U/L] | Activity (Mus musculus [20]) | Activity (Rattus norvegicus [21]) [%] | also measured
CCOC(=O)c1cc2ccc(C(=O)OC)cc2s1 | 3.03 | Non-toxic | 123 | Non-toxic | Non-toxic | Non-toxic | Non-toxic | Non-toxic | Non-toxic | Non-toxic | 1.13 | Non-toxic | 0.36 | Non-toxic | 40.03 | Non-toxic | 6.69 | 124.42 | Non-toxic | 28.61 | Activity (Rattus norvegicus [3]): Active; LD50 at 336 h [22]: > 700 mg/kg; Activity (Rattus norvegicus [23]): Active; Activity (Rattus norvegicus [24]): Active; Activity (Rattus norvegicus [25]): Non-toxic; Activity (Rattus norvegicus [26]): 8.92%; Activity (Rattus norvegicus [27]): Non-toxic; Activity (Rattus norvegicus [28]): Non-toxic; Activity (Rattus norvegicus [29]): Active; Activity (Rattus norvegicus [30]): 26.25 U/L; Activity (Rattus norvegicus [31]): 46.39%
COC(=O)c1ccc2cc(C(C)=O)sc2c1 | 4.52 | Non-toxic | 85.2 | Non-toxic | Non-toxic | Non-toxic | Non-toxic | Non-toxic | Non-toxic | Non-toxic | 0.99 | Non-toxic | 0.52 | Non-toxic | 48.93 | Non-toxic | 5.95 | 119.08 | Non-toxic | 24.72 | Activity (Rattus norvegicus [32]): Active; LD50 at 336 h [22]: > 700 mg/kg; Activity (Rattus norvegicus [25]): Non-toxic; Activity (Rattus norvegicus [26]): 9.52%; Activity (Rattus norvegicus [27]): Non-toxic; Activity (Rattus norvegicus [28]): Non-toxic; Activity (Rattus norvegicus [30]): 31.55 U/L; Activity (Rattus norvegicus [31]): 34.98%
